Like-named read-outs stand apart in the source and are kept apart here.
What was measured:
CAG18491/pQE15-MRS/pREP4 = format: cell-based, E. coli; conditions: for level of protein synthesis in modified host over conventional host (Western blot, laser densitometry): 5-ml cultures, versus CAG18491/pQE15/pREP4; for yield of mDHFR from large-scale cultures: preliminary results
Description: Similarly, a bacterial host capable of overexpressing MetRS was produced by transforming E. coli strains CAG18491 (Novagen, Inc., Madison, Wis., USA), a methionine auxotroph, with repressor plasmid pREP4 and expression plasmid pQE15-MRS, as described for the B834(DE3) strain. A control bacterial host, which produces only mDHFR and normal cellular levels of MetRS, was prepared by transforming CAG18491 with pREP4 and pQE15.
(§1) Methionine analogues were synthesized via alkylation of diethylacetamidomalonate, as previously described (As described in Example I, infra; J. C. M. van Hest, D. A. Tirrell, FEBS Lett. 1998, 428, 68-70). Cultures of B834(DE3)/pQE15-MRS/pREP4 or B834(DE3)/pQE15/pREP4 or CAG18491/pQE15-MRS/pREP4 or CAG18491/pQE15/pREP4 in M9AA media were grown to an optical density of 0.90, and the cells were sedimented by centrifugation. The M9AA medium was prepared by supplementing sterile M9 medium with […] of each of the amino acids, 1 mM MgSO4, 0.2 wt % glucose, 1 mg/ml thiamine chloride, and […] calcium chloride. The antibiotics ampicillin and kanamycin were added at concentrations of 200 mg/l and 35 mg/l, respectively.
(§2) Cells were washed three times with M9 salts and resuspended to an optical density of 0.90 in M9 test media containing 19 amino acids plus 1) neither methionine nor analogue (negative control); 2) methionine (60 mg/liter, positive control); or 3) an analogue of interest (60 mg/liter). To test the effect of increasing the level of supplementation of the analogues, a set of experiments was also conducted in which the medium was supplemented with 500 mg/liter of methionine or the amino acid analogue. Expression of mDHFR was induced by addition of 0.4 mM isopropyl β-D-thiogalactopyranoside (IPTG), and protein synthesis was monitored after 4.5 hours.
Buffers and media were prepared according to standard protocols (Ausubel, F. M.; Brent, R.; Kingston, R. E.; Moore, D. D.; Seidman, J. G.; Smith, J. A.; Struhl, K., Eds. Current Protocols in Molecular Biology; John Wiley and Sons: New York, 1998). The E. coli methionine auxotroph CAG18491 (λ^−, rph-1, metE3079.:Tn10) was transformed with plasmids pQE15 and pREP4 (Qiagen), to obtain the expression host CAG18491/pQE15/pREP4. […] Both bacterial expression hosts produce the target protein mDHFR under control of a bacteriophage T5 promoter; the modified host also expresses extra copies of the MetRS gene under control of the constitutive metG p1 promoter (Dardel, F.; Panvert, M.; Fayat, G. Mol. Gen. Genet. 1990, 223, 121.133).
M9AA medium (100 mL) supplemented with 1 mM MgSO4 0.2 wt % glucose, 1 mg/L thiamine chloride and the antibiotics ampicillin (200 mg/L) and kanamycin (35 mg/L) was inoculated with the appropriate E. coli strain (CAG18491/pQE15/pREP4 or CAG18491/pQE15-MRS/pREP4) and grown overnight at 37° C. This culture was used to inoculate 900 mL M9AA medium supplemented as described. The cells were grown to an optical density at 600 nm (OD600) of approximately 0.9 and a medium shift was performed. The cells were sedimented for 10 min at 3030 g at 4° C., the supernatant was removed, and the cell pellet was washed twice with 600 mL of M9 medium. Cells were resuspended in 1000 mL of the M9AA medium described above, without methionine, and supplemented with 20 mg/L of the L-isomer of either 1, 2, 3, or 9. Protein synthesis was induced by addition of isopropyl-β-D-thiogalactopyranoside (IPTG) to a final concentration of 0.4 mM. Samples (1 mL) were collected after 4.5 hours, the OD600 measured, and cells resuspended with distilled water to yield a normalized OD600 of 20.

[1] = test system: B834(DE3) or CAG18491 hosts with pQE15/pREP4 or pQE15-MRS/pREP4; test: Translational activity: mDHFR synthesis, statements covering several bacterial hosts (with pQE15 or pQE15-MRS); format: cell-based, E. coli; conditions: for target protein mDHFR in SDS-PAGE: amino acids at 60 mg/liter, both bacterial hosts; for translational activity / incorporation in hosts with increased MetRS activity: hosts overproducing MetRS
Description: as §1, §2

CCCC[C@H](N)C(=O)O [Analogue 9, L-norleucine]
level of protein synthesis in modified host over conventional host (Western blot, laser densitometry) (CAG18491/pQE15-MRS/pREP4): approximately 1.4 fold
yield of mDHFR from large-scale cultures (CAG18491/pQE15-MRS/pREP4): approximately 35 mg/L
target protein mDHFR in SDS-PAGE [1]: detected

CSCC[C@H](N)C(=O)O [Analogue 1, L-methionine, reference compound]
level of protein synthesis in modified host over conventional host (Western blot, laser densitometry) (CAG18491/pQE15-MRS/pREP4): does not exhibit higher levels of protein synthesis
target protein mDHFR in SDS-PAGE [1]: detected

C/C=C/CC(N)C(=O)O (racemic) [Analogue 5, trans-2-amino-4-hexenoic acid]
translational activity / incorporation in hosts with increased MetRS activity [1]: permits incorporation

CCCCCC(N)C(=O)O (racemic) [Analogue 7, DL-2-aminoheptanoic acid]
mDHFR expression (SDS-PAGE) (CAG18491/pQE15-MRS/pREP4; 500 mg/liter): able to produce the target protein
target protein mDHFR in SDS-PAGE [1]: not observed
translational activity / incorporation in hosts with increased MetRS activity [1]: permits incorporation

2-butynylglycine [Analogue 11]
mDHFR expression (SDS-PAGE) (CAG18491/pQE15-MRS/pREP4; 60 mg/L): strong induction of mDHFR
translational activity / incorporation in hosts with increased MetRS activity [1]: permits incorporation

C=CCCC(N)C(=O)O (racemic) [Analogue 2, DL-2-amino-5-hexenoic acid]
level of protein synthesis in modified host over conventional host (Western blot, laser densitometry) (CAG18491/pQE15-MRS/pREP4): approximately 1.5 fold
yield of mDHFR from large-scale cultures (CAG18491/pQE15-MRS/pREP4): approximately 35 mg/L
target protein mDHFR in SDS-PAGE [1]: detected

C/C=C\CC(N)C(=O)O (racemic) [Analogue 4, cis-2-amino-4-hexenoic acid]
mDHFR expression (SDS-PAGE) (CAG18491/pQE15-MRS/pREP4; 500 mg/liter): able to produce the target protein
target protein mDHFR in SDS-PAGE [1]: not observed
translational activity / incorporation in hosts with increased MetRS activity [1]: permits incorporation

CCC[C@H](N)C(=O)O [Analogue 8, L-norvaline]
mDHFR expression (SDS-PAGE) (CAG18491/pQE15-MRS/pREP4; 500 mg/liter): able to produce the target protein
target protein mDHFR in SDS-PAGE [1]: not observed
translational activity / incorporation in hosts with increased MetRS activity [1]: permits incorporation

C#CCCC(N)C(=O)O (racemic) [Analogue 3, DL-homopropargylglycine]
level of protein synthesis in modified host over conventional host (Western blot, laser densitometry) (CAG18491/pQE15-MRS/pREP4): does not exhibit higher levels of protein synthesis
target protein mDHFR in SDS-PAGE [1]: detected

C=CCC(N)C(=O)O (stereo not shown) [Analogue 12, allylglycine]
mDHFR expression (SDS-PAGE) (CAG18491/pQE15-MRS/pREP4; 500 mg/liter): able to produce the target protein
target protein mDHFR in SDS-PAGE [1]: not observed
translational activity / incorporation in hosts with increased MetRS activity [1]: permits incorporation

— patent US7723070B2, “Overexpression of aminoacyl-tRNA synthetases for efficient production of engineered proteins containing amino acid analogues” (California Institute of Technology, priority 2000, dated 2010)
